Where two headings read alike, the source gives them in different places.
Columns and labels:
Format in all cases: biochemical
[1] = biological target: PRK2 (Homo sapiens, UniProt Q16513); test: Kinase profiling PRK2; conditions: for remaining activity at 100 µM: read-out: residual kinase activity, PRK2
Text: (§1) Any value less that 25 is considered to be highly significant inhibition.

[2] = biological target: Lck (Homo sapiens, UniProt P06239); test: Kinase profiling Lck; conditions: for remaining activity at 100 µM: read-out: residual kinase activity, Lck
Text: as §1

[3] = biological target: SmMLCK (Homo sapiens, UniProt Q15746); test: Kinase profiling SmMLCK; conditions: for remaining activity at 100 µM: read-out: residual kinase activity, SmMLCK
[4] = biological target: BTK (Homo sapiens, UniProt Q06187); test: Kinase profiling BTK; conditions: for remaining activity at 100 µM: read-out: residual kinase activity, BTK
Chain of BTK (Q06187 whole entry, species assumed): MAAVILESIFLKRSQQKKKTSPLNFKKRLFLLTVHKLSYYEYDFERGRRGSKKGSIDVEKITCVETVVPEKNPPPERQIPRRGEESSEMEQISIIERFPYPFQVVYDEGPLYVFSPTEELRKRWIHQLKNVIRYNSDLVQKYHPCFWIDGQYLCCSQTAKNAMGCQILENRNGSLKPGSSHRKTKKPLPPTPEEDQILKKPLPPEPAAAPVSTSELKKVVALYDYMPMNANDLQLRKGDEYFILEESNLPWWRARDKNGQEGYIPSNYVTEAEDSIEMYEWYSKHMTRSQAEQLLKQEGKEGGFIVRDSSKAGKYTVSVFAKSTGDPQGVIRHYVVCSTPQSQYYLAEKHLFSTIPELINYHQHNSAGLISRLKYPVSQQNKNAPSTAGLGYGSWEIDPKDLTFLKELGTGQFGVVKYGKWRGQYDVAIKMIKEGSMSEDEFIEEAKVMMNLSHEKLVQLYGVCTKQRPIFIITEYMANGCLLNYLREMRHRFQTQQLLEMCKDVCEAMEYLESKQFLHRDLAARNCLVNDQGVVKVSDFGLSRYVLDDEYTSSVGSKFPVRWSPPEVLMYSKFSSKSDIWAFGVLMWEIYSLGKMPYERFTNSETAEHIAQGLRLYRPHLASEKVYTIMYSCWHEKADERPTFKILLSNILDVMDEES
Text: as §1

[5] = test system: VEG-FR; test: Kinase profiling VEG-FR
Text: as §1

[6] = biological target: S6K1 (Homo sapiens, UniProt P23443); test: Kinase profiling S6K1; conditions: for remaining activity at 100 µM: read-out: residual kinase activity, S6K1
Chain of S6K1 (P23443 whole entry, species assumed): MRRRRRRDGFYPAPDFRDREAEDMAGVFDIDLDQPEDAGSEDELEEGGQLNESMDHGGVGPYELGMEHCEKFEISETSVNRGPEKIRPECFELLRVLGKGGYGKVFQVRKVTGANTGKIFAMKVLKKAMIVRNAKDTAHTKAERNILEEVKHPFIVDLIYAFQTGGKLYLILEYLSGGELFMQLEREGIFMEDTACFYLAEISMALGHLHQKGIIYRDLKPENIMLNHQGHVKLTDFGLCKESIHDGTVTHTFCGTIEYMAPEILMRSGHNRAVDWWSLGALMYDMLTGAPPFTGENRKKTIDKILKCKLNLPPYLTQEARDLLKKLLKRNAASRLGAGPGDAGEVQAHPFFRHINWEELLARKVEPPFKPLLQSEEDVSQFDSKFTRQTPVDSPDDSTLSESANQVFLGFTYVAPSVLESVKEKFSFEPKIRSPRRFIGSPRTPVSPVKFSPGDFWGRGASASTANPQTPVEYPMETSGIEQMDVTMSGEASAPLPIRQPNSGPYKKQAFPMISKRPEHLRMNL
Text: as §1

[7] = biological target: HIPK2 (Homo sapiens, UniProt Q9H2X6); test: Kinase profiling HIPK2; conditions: for remaining activity at 100 µM: read-out: residual kinase activity, HIPK2
Text: as §1

[8] = biological target: IGF-1R (Homo sapiens, UniProt P08069); test: Kinase profiling IGF-1R; conditions: for remaining activity at 100 µM: read-out: residual kinase activity, IGF-1R
Chain of IGF-1R (P08069 31-1367, species assumed): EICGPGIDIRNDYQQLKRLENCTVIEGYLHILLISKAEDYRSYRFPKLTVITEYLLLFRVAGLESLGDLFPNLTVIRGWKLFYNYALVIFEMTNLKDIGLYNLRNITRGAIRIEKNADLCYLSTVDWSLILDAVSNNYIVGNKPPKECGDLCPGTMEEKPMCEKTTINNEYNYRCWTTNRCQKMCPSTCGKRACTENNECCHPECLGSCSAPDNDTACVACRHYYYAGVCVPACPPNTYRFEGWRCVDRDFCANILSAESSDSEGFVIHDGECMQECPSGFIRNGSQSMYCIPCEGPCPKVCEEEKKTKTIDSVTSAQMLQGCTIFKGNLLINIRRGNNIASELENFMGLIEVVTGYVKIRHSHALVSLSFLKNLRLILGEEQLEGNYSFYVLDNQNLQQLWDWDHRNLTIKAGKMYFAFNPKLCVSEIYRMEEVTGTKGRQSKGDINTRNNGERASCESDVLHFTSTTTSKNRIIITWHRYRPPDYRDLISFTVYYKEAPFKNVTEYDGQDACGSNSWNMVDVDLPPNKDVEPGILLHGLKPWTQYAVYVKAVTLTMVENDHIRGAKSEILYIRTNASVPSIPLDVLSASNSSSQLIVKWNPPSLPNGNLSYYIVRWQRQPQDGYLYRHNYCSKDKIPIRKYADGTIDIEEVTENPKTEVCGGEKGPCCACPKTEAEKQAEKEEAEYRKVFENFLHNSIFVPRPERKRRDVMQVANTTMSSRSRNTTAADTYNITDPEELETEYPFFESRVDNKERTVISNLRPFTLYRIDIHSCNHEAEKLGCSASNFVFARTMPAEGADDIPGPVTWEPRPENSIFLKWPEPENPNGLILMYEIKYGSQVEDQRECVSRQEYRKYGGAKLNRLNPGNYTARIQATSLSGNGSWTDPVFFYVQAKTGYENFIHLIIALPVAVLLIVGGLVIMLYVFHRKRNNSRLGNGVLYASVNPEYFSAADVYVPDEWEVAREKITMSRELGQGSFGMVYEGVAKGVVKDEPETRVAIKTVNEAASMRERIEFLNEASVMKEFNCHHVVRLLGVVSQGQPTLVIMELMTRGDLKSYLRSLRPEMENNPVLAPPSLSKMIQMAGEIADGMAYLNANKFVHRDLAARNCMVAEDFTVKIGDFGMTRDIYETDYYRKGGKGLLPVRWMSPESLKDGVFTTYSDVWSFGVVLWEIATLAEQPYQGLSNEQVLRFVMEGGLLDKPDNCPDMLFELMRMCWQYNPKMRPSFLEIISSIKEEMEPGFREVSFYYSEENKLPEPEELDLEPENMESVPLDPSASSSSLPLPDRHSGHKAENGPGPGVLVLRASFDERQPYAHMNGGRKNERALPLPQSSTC
Text: as §1

[9] = biological target: T1, SGK1 (Homo sapiens, UniProt O00141); test: Kinase profiling SGK1; conditions: for remaining activity at 100 µM: read-out: residual kinase activity, SGK1
T1 sequence (O00141 1-431): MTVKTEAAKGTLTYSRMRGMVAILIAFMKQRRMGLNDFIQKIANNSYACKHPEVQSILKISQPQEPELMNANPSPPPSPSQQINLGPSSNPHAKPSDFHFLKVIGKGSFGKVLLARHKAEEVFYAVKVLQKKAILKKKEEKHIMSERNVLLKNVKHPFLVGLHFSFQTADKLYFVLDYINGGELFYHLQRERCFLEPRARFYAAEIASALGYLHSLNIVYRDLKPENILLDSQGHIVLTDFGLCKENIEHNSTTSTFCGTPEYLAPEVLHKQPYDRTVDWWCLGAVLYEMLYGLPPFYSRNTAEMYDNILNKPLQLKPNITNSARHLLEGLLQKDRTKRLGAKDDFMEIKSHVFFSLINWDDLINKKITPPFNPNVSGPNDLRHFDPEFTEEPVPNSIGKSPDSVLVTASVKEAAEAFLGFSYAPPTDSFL
Text: as §1

[10] = biological target: MLK3 (Homo sapiens, UniProt Q16584); test: Kinase profiling MLK3; conditions: for remaining activity at 100 µM: read-out: residual kinase activity, MLK3
Chain of MLK3 (Q16584 whole entry, species assumed): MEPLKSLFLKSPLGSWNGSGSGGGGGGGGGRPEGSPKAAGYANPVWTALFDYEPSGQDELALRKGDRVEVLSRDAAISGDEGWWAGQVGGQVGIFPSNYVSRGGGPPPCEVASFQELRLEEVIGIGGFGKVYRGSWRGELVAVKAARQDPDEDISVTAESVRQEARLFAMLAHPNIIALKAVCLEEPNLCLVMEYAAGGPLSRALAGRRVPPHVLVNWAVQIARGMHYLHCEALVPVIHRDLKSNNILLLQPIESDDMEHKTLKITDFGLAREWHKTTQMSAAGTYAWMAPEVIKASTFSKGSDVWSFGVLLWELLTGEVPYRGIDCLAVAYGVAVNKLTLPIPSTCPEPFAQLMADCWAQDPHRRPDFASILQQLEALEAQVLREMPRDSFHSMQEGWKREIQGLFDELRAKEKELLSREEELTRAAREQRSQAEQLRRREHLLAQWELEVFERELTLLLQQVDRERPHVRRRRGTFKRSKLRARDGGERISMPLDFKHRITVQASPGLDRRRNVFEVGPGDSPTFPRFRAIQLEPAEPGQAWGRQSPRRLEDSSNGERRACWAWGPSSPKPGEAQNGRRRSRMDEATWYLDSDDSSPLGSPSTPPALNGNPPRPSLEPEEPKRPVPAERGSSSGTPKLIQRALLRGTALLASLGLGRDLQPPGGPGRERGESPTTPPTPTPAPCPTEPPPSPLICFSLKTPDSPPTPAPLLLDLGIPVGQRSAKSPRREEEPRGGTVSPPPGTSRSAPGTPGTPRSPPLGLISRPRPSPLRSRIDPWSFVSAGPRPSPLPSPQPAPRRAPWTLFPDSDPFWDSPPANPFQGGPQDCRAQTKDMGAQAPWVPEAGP
Text: as §1

[11] = biological target: MARK3 (Homo sapiens, UniProt P27448); test: Kinase profiling MARK3; conditions: for remaining activity at 100 µM: read-out: residual kinase activity, MARK3
Chain of MARK3 (P27448 whole entry, species assumed): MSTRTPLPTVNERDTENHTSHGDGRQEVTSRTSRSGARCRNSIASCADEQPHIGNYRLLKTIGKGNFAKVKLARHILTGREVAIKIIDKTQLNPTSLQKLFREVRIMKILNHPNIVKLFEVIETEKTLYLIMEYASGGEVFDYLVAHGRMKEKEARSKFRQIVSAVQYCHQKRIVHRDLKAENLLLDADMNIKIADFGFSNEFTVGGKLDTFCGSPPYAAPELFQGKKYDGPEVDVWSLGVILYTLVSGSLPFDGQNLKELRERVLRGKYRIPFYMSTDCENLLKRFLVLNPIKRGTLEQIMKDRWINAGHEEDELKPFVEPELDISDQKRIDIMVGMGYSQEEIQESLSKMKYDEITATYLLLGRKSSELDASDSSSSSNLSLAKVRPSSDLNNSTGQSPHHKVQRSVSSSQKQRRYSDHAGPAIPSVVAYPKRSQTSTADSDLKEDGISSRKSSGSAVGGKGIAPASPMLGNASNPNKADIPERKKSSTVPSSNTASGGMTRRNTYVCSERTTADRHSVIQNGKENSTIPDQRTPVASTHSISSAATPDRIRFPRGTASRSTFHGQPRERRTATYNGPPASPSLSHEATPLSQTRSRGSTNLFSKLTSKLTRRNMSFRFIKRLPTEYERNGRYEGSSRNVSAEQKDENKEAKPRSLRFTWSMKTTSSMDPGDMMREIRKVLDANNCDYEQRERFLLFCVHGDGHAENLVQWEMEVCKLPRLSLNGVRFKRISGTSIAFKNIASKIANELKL
Text: as §1

[12] = 100 micromolar inhibitor concentration, 100 is no change
[13] = 100 micromolar inhibitor, 100 = no change

Chain of PRK2 (Q16513 whole entry, species assumed): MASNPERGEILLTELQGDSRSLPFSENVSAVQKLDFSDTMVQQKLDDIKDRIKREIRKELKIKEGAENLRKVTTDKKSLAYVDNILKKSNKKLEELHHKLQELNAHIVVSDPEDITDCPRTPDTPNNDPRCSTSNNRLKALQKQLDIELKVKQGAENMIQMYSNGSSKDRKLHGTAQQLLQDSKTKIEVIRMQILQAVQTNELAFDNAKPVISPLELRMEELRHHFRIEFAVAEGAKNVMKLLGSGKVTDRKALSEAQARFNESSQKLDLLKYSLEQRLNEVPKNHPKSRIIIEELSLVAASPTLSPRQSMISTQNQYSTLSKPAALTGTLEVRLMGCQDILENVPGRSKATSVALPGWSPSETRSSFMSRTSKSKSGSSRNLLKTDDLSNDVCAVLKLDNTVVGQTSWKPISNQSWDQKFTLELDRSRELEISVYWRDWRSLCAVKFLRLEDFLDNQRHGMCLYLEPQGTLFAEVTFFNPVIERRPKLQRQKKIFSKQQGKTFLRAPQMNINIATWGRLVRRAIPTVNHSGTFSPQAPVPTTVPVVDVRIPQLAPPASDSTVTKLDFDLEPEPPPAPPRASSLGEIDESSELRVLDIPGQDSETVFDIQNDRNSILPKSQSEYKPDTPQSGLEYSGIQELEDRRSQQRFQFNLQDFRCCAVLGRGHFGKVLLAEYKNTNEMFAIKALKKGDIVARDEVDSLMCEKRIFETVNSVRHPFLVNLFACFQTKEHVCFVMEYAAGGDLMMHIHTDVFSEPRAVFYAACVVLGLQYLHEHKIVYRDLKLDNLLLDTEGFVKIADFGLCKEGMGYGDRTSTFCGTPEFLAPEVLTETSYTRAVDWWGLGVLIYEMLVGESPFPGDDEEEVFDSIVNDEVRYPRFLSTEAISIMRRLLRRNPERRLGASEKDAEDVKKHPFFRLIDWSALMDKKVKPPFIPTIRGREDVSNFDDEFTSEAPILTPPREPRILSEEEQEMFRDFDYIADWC

SMILES	residual kinase activity, PRK2 [1, 12]	residual kinase activity, Lck [2, 12]	residual kinase activity, SmMLCK [3, 12]	residual kinase activity, BTK [4, 12]	residual kinase activity, VEG-FR [5, 12]	residual kinase activity, S6K1 [6, 12]	residual kinase activity, HIPK2 [7, 12]	residual kinase activity, IGF-1R [8, 12]	residual kinase activity, SGK1 [9, 12]	residual kinase activity, MLK3 [10, 12]	residual kinase activity, MARK3 [11, 12]	further results
O=C(Nc1nc2ccc(F)cc2s1)c1ccccc1 [Compound 03-92]	95	102	68	73	53	79	78	88	93	49	109	–
CC(=O)Nc1nc2ccc(F)cc2s1 [Compound 03-94]	80	92	67	107	18	67	27	92	67	46	96	–
COc1ccc2sc(NC(=O)c3ccccc3)nc2c1 [Compound 03-95]	84	93	48	75	65	77	74	100	60	40	106	–
COc1ccc2nc(NC(=O)c3ccccc3)sc2c1 [Compound 03-98]	91	93	75	56	37	76	41	104	78	20	72	–
O=C(Nc1nc2ccc(C(F)(F)F)cc2s1)c1ccccc1 [Compound 03-99]	85	92	89	79	28	86	90	85	69	72	106	–
O=C(Nc1nc2cc(O)ccc2s1)c1ccccc1 [Compound 03-102]	68	98	15	81	11	42	36	52	86	15	63	–
COC(=O)c1cccc(C(=O)Nc2nc3ccc(C(F)(F)F)cc3s2)c1 [Compound 03-105, Methyl 3-((6-(trifluoromethyl)benzo[d]thiazol-2-yl)carbamoyl)benzoate]	–	–	–	–	29	–	–	–	–	–	–	remaining activity at 100 µM [1]: 109%; remaining activity at 100 µM [2]: 99%; remaining activity at 100 µM [3, 12]: 63%; remaining activity at 100 µM [4]: 95%; remaining activity at 100 µM [6]: 78%; remaining activity at 100 µM [7]: 72%; remaining activity at 100 µM [8]: 101%; remaining activity at 100 µM [9]: 86%; remaining activity at 100 µM [10]: 54%; remaining activity at 100 µM [11]: 103%
N#Cc1ccc2nc(NC(=O)c3ccccc3)sc2c1 [Compound 03-106]	105	95	94	49	36	78	62	131	77	56	98	–
COC(=O)c1cccc(C(=O)Nc2nc3cc(OC)ccc3s2)c1 [Compound 03-108]	100	100	79	68	77	95	87	123	83	76	100	–
COC(=O)c1cccc(C(=O)Nc2nc3ccc(F)cc3s2)c1 [Compound 03-110]	85	93	55	77	66	91	66	96	87	68	105	–
COc1ccc2sc(NC(=O)c3cccc(C(N)=O)c3)nc2c1 [Compound 03-113]	98	111	83	74	86	79	96	104	88	73	101	–
COc1ccc2nc(C(=O)Nc3ccccc3)sc2c1 [Compound 13-03]	–	–	–	–	–	–	–	–	–	–	–	residual kinase activity, PRK2 [1, 13]: 105; residual kinase activity, Lck [2, 13]: 89; residual kinase activity, SmMLCK [3, 13]: 85; residual kinase activity, BTK [4, 13]: 31; residual kinase activity, VEG-FR [5, 13]: 87; residual kinase activity, S6K1 [6, 13]: 90; residual kinase activity, HIPK2 [7, 13]: 96; residual kinase activity, IGF-1R [8, 13]: 104; residual kinase activity, SGK1 [9, 13]: 91; residual kinase activity, MLK3 [10, 13]: 89; residual kinase activity, MARK3 [11, 13]: 92
CC(=O)Nc1nc2ccc([N+](=O)[O-])cc2s1 [Compound 13-10]	–	–	–	–	5	–	–	–	–	–	–	remaining activity at 100 µM [1, 12]: 93%; remaining activity at 100 µM [2, 12]: 79%; remaining activity at 100 µM [3, 12]: 58%; remaining activity at 100 µM [4, 12]: 96%; remaining activity at 100 µM [6, 12]: 65%; remaining activity at 100 µM [7, 12]: 8%; remaining activity at 100 µM [8, 12]: 91%; remaining activity at 100 µM [9, 12]: 58%; remaining activity at 100 µM [10, 12]: 54%; remaining activity at 100 µM [11, 12]: 85%
COc1cccc(NC(=O)Nc2nc3cc(O)ccc3s2)c1 [Compound 13-62]	–	–	–	–	–	–	–	–	–	–	–	residual kinase activity, PRK2 [1, 13]: 40; residual kinase activity, Lck [2, 13]: 11; residual kinase activity, SmMLCK [3, 13]: 5; residual kinase activity, BTK [4, 13]: 25; residual kinase activity, VEG-FR [5, 13]: 7; residual kinase activity, S6K1 [6, 13]: 22; residual kinase activity, HIPK2 [7, 13]: 23; residual kinase activity, IGF-1R [8, 13]: 62; residual kinase activity, SGK1 [9, 13]: 21; residual kinase activity, MLK3 [10, 13]: 13; residual kinase activity, MARK3 [11, 13]: 12
